Experimental data from US20170298060A1, “PYRROLOPYRIDINE RETINOIC ACID RECEPTOR-RELATED ORPHAN RECEPTOR MODULATORS AND USES THEREOF” (INNOV17 LLC, priority 2016, published 2017).

Experiments:
IL-17A = assay: Human TH17 cytokine inhibition as measured by ELISA (IL-17A); format: cell-based; conditions: 72 h; human CD4+ T cells under TH17-polarizing conditions, 3 days, supernatant ELISA, 0.1% DMSO
Experimental: (§1) Human TH17 Cytokine Inhibition as Measured by ELISA
(§2) Peripheral blood mononuclear cells (PBMCs) were sourced from freshly prepared leukocyte enriched plasma (buffy coat) from healthy donors (New York Blood Center). PBMCs were isolated by density gradient centrifugation using Ficoll-Paque™ PLUS (GE Healthcare). Human CD4+ T cells were seeded into 96-well plates (5×10^4 cells/well) and activated with plate-bound anti-human (h)-CD3 antibody and soluble h-aCD28 (both at 1 ug/ml; eBioscience) and differentiated into TH17 cells with 20 ng/mL h-IL-6, 5 ng/mL h-TGF-β1, 10 ng/mL h-IL-23 (eBioscience) and 10 ng/mL IL-1β (Miltenyi Biotec) in serum-free TexMACS Medium (Miltenyi Biotec) supplemented with 1% Penicillin/Streptomycin (Lonza) for 3 days. CD4+ T cells propagated under TH17-polarizing conditions were cultured in the presence or absence of various concentrations of compounds with a final concentration of 0.1% DMSO. Supernatants were collected and stored at −20° C. until assayed for IL-17A and IL-17F levels by “Ready-Set-Go” ELISA kits (eBioscience) as per manufacturer's instructions. Endpoint absorbance was read at 450 nm using a microplate reader (Perkin Elmer).

IL-17F = assay: Human TH17 cytokine inhibition as measured by ELISA (IL-17F); format: cell-based; conditions: 72 h; human CD4+ T cells under TH17-polarizing conditions, 3 days, supernatant ELISA, 0.1% DMSO
Experimental: as §1, §2

| Compound | IC50 (IL-17A) [µM] | IC50 (IL-17F) [µM] |
| --- | --- | --- |
| O=S(=O)(c1ccccc1)N1CCC(Cn2ccc3cc(-c4cn[nH]c4)cnc32)CC1 [Example 15, 1-((1-(phenylsulfonyl)piperidin-4-yl)methyl)-5-(1H-pyrazol-4-yl)-1H-pyrrolo[2,3-b]pyridine] | < 10 | < 10 |
| O=C(c1ccccc1F)N1CCC(Cn2ccc3cc(-c4cn[nH]c4)cnc32)CC1 [Example 12, (4-((5-(1H-pyrazol-4-yl)-1H-pyrrolo[2,3-b]pyridin-1-yl)methyl)piperidin-1-yl)(2-fluorophenyl)methanone] | < 10 | < 10 |
| CC(C)CC(=O)N1CCC(Cn2ccc3cc(-c4cn[nH]c4)cnc32)CC1 [Example 11, 1-(4-((5-(1H-pyrazol-4-yl)-1H-pyrrolo[2,3-b]pyridin-1-yl)methyl)piperidin-1-yl)-3-methylbutan-1-one] | < 10 | < 10 |
| O=S(=O)(c1ccccc1)N1CCC(Cn2ccc3cc(-c4cn[nH]c4)ncc32)CC1 [Example 7, 1-((1-(phenylsulfonyl)piperidin-4-yl)methyl)-5-(1H-pyrazol-4-yl)-1H-pyrrolo[2,3-c]pyridine] | < 10 | < 10 |
| CC(C)CS(=O)(=O)N1CCC(Cn2ccc3cc(-c4cn[nH]c4)ncc32)CC1 [Example 6, 1-((1-(isobutylsulfonyl)piperidin-4-yl)methyl)-5-(1H-pyrazol-4-yl)-1H-pyrrolo[2,3-c]pyridine] | < 10 | < 10 |
| O=C(c1ccccc1)N1CCC(Cn2ccc3cc(-c4cn[nH]c4)ncc32)CC1 [Example 1, (4-((5-(1H-pyrazol-4-yl)-1H-pyrrolo[2,3-c]pyridin-1-yl)methyl)piperidin-1-yl)(phenyl)methanone] | < 10 | < 10 |
| O=S(=O)(c1ccccc1F)N1CCC(Cn2ccc3cc(-c4cn[nH]c4)cnc32)CC1 [Example 16, 1-((1-((2-fluorophenyl)sulfonyl)piperidin-4-yl)methyl)-5-(1H-pyrazol-4-yl)-1H-pyrrolo[2,3-b]pyridine] | < 10 | < 10 |
| O=C(c1ccccc1F)N1CCC(Cn2ccc3cc(-c4cn[nH]c4)ncc32)CC1 [Example 4, (4-((5-(1H-pyrazol-4-yl)-1H-pyrrolo[2,3-c]pyridin-1-yl)methyl)piperidin-1-yl)(2-fluorophenyl)methanone] | < 10 | < 10 |
| CC(C)CC(=O)N1CCC(Cn2ccc3cc(-c4cn[nH]c4)ncc32)CC1 [Example 3] | < 10 | < 10 |
| O=S(=O)(c1ccccc1F)N1CCC(Cn2ccc3cc(-c4cn[nH]c4)ncc32)CC1 [Example 8, 1-((1-((2-fluorophenyl)sulfonyl)piperidin-4-yl)methyl)-5-(1H-pyrazol-4-yl)-1H-pyrrolo[2,3-c]pyridine] | < 10 | < 10 |
| O=S(=O)(CCc1ccccc1)N1CCC(Cn2ccc3cc(-c4cn[nH]c4)cnc32)CC1 [Example 13, 1-((1-(phenethylsulfonyl)piperidin-4-yl)methyl)-5-(1H-pyrazol-4-yl)-1H-pyrrolo[2,3-b]pyridine] | < 10 | < 10 |
| O=S(=O)(CCc1ccccc1)N1CCC(Cn2ccc3cc(-c4cn[nH]c4)ncc32)CC1 [Example 5, 1-((1-(phenethylsulfonyl)piperidin-4-yl)methyl)-5-(1H-pyrazol-4-yl)-1H-pyrrolo[2,3-c]pyridine] | < 10 | < 10 |
| CC(C)CS(=O)(=O)N1CCC(Cn2ccc3cc(-c4cn[nH]c4)cnc32)CC1 [Example 14, 1-((1-(isobutylsulfonyl)piperidin-4-yl)methyl)-5-(1H-pyrazol-4-yl)-1H-pyrrolo[2,3-b]pyridine] | < 10 | < 10 |
| O=C(CCc1ccccc1)N1CCC(Cn2ccc3cc(-c4cn[nH]c4)cnc32)CC1 [Example 10, 1-(4-((5-(1H-pyrazol-4-yl)-1H-pyrrolo[2,3-b]pyridin-1-yl)methyl)piperidin-1-yl)-3-phenylpropan-1-one] | < 10 | < 10 |
| O=C(c1ccccc1)N1CCC(Cn2ccc3cc(-c4cn[nH]c4)cnc32)CC1 [Example 9, (4-((5-(1H-pyrazol-4-yl)-1H-pyrrolo[2,3-b]pyridin-1-yl)methyl)piperidin-1-yl)(phenyl)methanone] | < 10 | < 10 |
